Data set [1] has as its target T1, Glucagon-like peptide 1 receptor (Homo sapiens, UniProt P43220). In words: Agonist activity at human GLP1R expressed in HEK293 cells after 5 hrs by luciferase reporter gene assay. It is filed as cell-based. (In a reporter assay the amount or activity of a reporter protein is the signal.)
Data set [2] has as its target T1, Glucagon-like peptide 1 receptor. The data set can be described thus: Agonist activity at human GLP1R expressed in HEK293 cells at 30 nM after 5 hrs by luciferase reporter gene assay. The data set is classed as cell-based.
For data set [3], the target named is T2, Glucagon-like peptide 2 receptor (Homo sapiens, UniProt O95838).
T2 sequence (O95838 whole entry): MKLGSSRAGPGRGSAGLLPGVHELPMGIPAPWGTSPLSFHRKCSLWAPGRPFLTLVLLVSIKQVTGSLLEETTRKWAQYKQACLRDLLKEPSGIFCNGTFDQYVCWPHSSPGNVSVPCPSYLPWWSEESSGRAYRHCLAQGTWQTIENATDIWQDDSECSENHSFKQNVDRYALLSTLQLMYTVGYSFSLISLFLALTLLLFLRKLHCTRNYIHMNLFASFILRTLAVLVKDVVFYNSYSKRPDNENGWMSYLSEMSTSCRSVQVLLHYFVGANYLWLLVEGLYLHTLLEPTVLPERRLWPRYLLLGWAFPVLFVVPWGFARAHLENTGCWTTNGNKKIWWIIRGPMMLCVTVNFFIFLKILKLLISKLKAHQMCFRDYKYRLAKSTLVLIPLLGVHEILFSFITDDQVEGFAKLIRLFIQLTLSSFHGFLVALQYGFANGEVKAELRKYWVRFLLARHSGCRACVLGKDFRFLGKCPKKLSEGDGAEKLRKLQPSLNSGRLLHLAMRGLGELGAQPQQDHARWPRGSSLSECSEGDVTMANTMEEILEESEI
The data set can be described thus: Agonist activity at human GLP2R expressed in HEK293 cells after 5 hrs by luciferase reporter gene assay. It is filed as cell-based.

Data set [4] has as its target Glucagon receptor (Homo sapiens) (UniProt P47871). In words: Agonist activity at human GCGR expressed in HEK293 cells after 5 hrs by luciferase reporter gene assay. The data set is classed as cell-based.
Data set [5] has as its system HEK293. In words: Selectivity ratio of EC50 for human GLP1R expressed in HEK293 cells to EC50 for human GLP2R expressed in HEK293. It is filed as cell-based.
In data set [6] the target is T3, Glucagon-like peptide 2 receptor (Homo sapiens) (UniProt O95838).
T3 sequence (whole entry): T2 sequence (O95838 whole entry)
The data set can be described thus: Potency index, ratio of compound EC50 to compound 2 EC50 for human GLP2R expressed in HEK293 cells. The data set is classed as cell-based.

Data set [7] can be described thus: Systemic clearance in Sprague-Dawley rat at 0.2 mg/kg, iv through cassette dosing measured up to 300 mins by LC/MS/MS analysis. It is filed as ADME, organism-based. Conditions: in vivo.

The source made the active and inactive calls. The calls are words filed in the database; no cut-off is given here.

T1 sequence (P43220 whole entry): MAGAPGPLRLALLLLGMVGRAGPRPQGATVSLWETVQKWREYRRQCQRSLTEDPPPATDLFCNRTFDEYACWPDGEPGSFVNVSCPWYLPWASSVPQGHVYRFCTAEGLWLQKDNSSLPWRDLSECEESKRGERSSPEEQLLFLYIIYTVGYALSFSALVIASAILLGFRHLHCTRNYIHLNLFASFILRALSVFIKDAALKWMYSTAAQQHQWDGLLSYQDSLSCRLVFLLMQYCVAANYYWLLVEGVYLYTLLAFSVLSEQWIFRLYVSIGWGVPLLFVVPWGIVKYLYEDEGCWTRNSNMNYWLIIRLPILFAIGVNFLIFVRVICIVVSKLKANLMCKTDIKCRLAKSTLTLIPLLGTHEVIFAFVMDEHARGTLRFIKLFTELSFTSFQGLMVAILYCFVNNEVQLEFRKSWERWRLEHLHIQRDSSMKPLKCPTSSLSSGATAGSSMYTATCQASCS
Sequence of Glucagon receptor (Homo sapiens) (P47871 whole entry): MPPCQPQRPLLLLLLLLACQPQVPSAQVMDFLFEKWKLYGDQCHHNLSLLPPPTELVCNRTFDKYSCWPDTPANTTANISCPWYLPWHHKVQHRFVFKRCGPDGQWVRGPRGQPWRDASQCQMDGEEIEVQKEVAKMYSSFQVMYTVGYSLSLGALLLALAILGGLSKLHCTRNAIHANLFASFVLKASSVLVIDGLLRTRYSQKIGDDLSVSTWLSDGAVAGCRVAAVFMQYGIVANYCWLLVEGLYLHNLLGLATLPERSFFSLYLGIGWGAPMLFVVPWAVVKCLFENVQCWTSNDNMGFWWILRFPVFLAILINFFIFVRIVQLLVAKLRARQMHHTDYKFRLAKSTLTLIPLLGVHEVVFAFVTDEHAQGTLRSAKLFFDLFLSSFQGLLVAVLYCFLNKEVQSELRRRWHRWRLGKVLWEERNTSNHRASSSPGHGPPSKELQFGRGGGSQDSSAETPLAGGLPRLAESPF

As usually defined, the EC50 is the concentration that produces a half-maximal response. A low value points to a more potent agent. In the case of `CCCCC(NC(=O)[C@H](CCC(=O)O)NC(=O)[C@H](CC(=O)O)NC(=O)[C@H](CO)NC(=O)[C@H](Cc1ccccc1)NC(=O)[C@H](CO)NC(=O)CNC(=O)[C@H](CC(=O)O)NC(=O)CNC(=O)[C@@H](N)Cc1cnc[nH]1)C(=O)N[C@@H](CC(C)C)C(=O)N[C@H](C(=O)N[C@H](C(=O)N[C@@H](CC(C)C)C(=O)N[C@@H](CC(=O)O)C(=O)N[C@@H](CC(N)=O)C(=O)N[C@@H](CC(C)C)C(=O)N[C@@H](C)C(=O)N[C@@H](C)C(=O)N[C@@H](CCCNC(=N)N)C(=O)N[C@@H](CC(=O)O)C(=O)N[C@@H](Cc1ccccc1)C(=O)N[C@H](C(=O)N[C@@H](CC(N)=O)C(=O)N[C@@H](Cc1c[nH]c2ccccc12)C(=O)N[C@@H](CC(C)C)C(=O)N[C@H](C(=O)N[C@@H](CCC(N)=O)C(=O)N[C@H](C(=O)N[C@@H](CCCCN)C(N)=O)[C@@H](C)O)[C@@H](C)CC)[C@@H](C)CC)[C@@H](C)CC)[C@@H](C)O` (stereo partly specified), the EC50 is 180 nM in data set [1] and 0.15 nM in data set [3]. The Efficacy in data set [2] turned out to be 44%. Also, in data set [4], the outcome was inactive.

As to `CCCCC(NC(=O)[C@H](CCC(=O)O)NC(=O)[C@H](CC(=O)O)NC(=O)[C@H](CO)NC(=O)[C@H](Cc1ccccc1)NC(=O)[C@H](CO)NC(=O)CNC(=O)[C@H](CC(=O)O)NC(=O)CNC(=O)[C@@H](N)Cc1cnc[nH]1)C(=O)N[C@@H](Cc1cnc[nH]1)C(=O)N[C@H](C(=O)N[C@H](C(=O)N[C@@H](CC(C)C)C(=O)N[C@@H](CC(=O)O)C(=O)N[C@@H](CC(N)=O)C(=O)N[C@@H](CC(C)C)C(=O)N[C@@H](C)C(=O)N[C@@H](C)C(=O)N[C@@H](CCCNC(=N)N)C(=O)N[C@@H](CC(=O)O)C(=O)N[C@@H](Cc1ccccc1)C(=O)N[C@H](C(=O)N[C@@H](CC(N)=O)C(=O)N[C@@H](Cc1c[nH]c2ccccc12)C(=O)N[C@@H](CC(C)C)C(=O)N[C@H](C(=O)N[C@@H](CCC(N)=O)C(=O)N[C@H](C(=O)N[C@@H](CCCCN)C(N)=O)[C@@H](C)O)[C@@H](C)CC)[C@@H](C)CC)[C@@H](C)CC)[C@@H](C)O` (stereo partly specified), the Ratio EC50 in data set [5] stood at 680. For the same compound, the EC50 in data set [1] was determined as 300 nM; in data set [3] it was 0.44 nM. In data set [2], this compound came in with an Efficacy of 35%. The outcome in data set [4] was inactive.

Regarding `CC[C@H](C)[C@H](NC(=O)[C@H](Cc1ccccc1)NC(=O)[C@H](CC(=O)O)NC(=O)[C@H](CCCNC(=N)N)NC(=O)[C@H](C)NC(=O)[C@H](C)NC(=O)[C@H](CC(C)C)NC(=O)[C@H](CC(N)=O)NC(=O)[C@H](CC(=O)O)NC(=O)[C@H](CC(C)C)NC(=O)[C@@H](NC(=O)[C@@H](NC(=O)[C@H](CC(N)=O)NC(=O)[C@H](CCSC)NC(=O)[C@H](CCC(=O)O)NC(=O)[C@H](CC(=O)O)NC(=O)[C@H](CO)NC(=O)[C@H](Cc1ccccc1)NC(=O)[C@H](CO)NC(=O)CNC(=O)[C@H](CC(=O)O)NC(=O)[C@H](C)NC(=O)[C@@H](N)Cc1cnc[nH]1)[C@@H](C)O)[C@@H](C)CC)C(=O)N[C@@H](CC(N)=O)C(=O)N[C@@H](Cc1c[nH]c2ccccc12)C(=O)N[C@@H](CC(C)C)C(=O)N[C@H](C(=O)N[C@@H](CCC(N)=O)C(=O)N[C@H](C(=O)N[C@@H](CCCCN)C(=O)N[C@H](C(=O)N[C@H](C(=O)N[C@@H](CC(=O)O)C(=O)O)[C@@H](C)O)[C@@H](C)CC)[C@@H](C)O)[C@@H](C)CC`, in data set [2], the Efficacy amounted to 71%.

For the compound `CCCCC(NC(=O)[C@H](CCC(=O)O)NC(=O)[C@H](CC(=O)O)NC(=O)[C@H](CO)NC(=O)[C@H](Cc1ccccc1)NC(=O)[C@H](CO)NC(=O)CNC(=O)[C@H](CC(=O)O)NC(=O)CNC(=O)[C@@H](N)Cc1cnc[nH]1)C(=O)N[C@H](Cc1ccc(Cl)cc1)C(=O)N[C@H](C(=O)N[C@H](C(=O)N[C@@H](CC(C)C)C(=O)N[C@@H](CC(=O)O)C(=O)N[C@@H](CC(N)=O)C(=O)N[C@@H](CC(C)C)C(=O)N[C@@H](C)C(=O)N[C@@H](C)C(=O)N[C@@H](CCCNC(=N)N)C(=O)N[C@@H](CC(=O)O)C(=O)N[C@@H](Cc1ccccc1)C(=O)N[C@H](C(=O)N[C@@H](CC(N)=O)C(=O)N[C@@H](Cc1c[nH]c2ccccc12)C(=O)N[C@@H](CC(C)C)C(=O)N[C@H](C(=O)N[C@@H](CCC(N)=O)C(=O)N[C@H](C(=O)N[C@@H](CCCCN)C(N)=O)[C@@H](C)O)[C@@H](C)CC)[C@@H](C)CC)[C@@H](C)CC)[C@@H](C)O` (stereo partly specified), in data set [5], the Ratio EC50 came out at 660. The Efficacy in data set [2] was found to be 86%. Also, in data set [4], the result was inactive.

On to `CCCCC(NC(=O)[C@H](CCC(=O)O)NC(=O)[C@H](CC(=O)O)NC(=O)[C@H](CO)NC(=O)[C@H](Cc1ccccc1)NC(=O)[C@H](CO)NC(=O)CNC(=O)[C@H](CC(=O)O)NC(=O)CNC(=O)[C@@H](N)Cc1cnc[nH]1)C(=O)N[C@H](Cc1ccc(-c2ccccc2)cc1)C(=O)N[C@H](C(=O)N[C@H](C(=O)N[C@@H](CC(C)C)C(=O)N[C@@H](CC(=O)O)C(=O)N[C@@H](CC(N)=O)C(=O)N[C@@H](CC(C)C)C(=O)N[C@@H](C)C(=O)N[C@@H](C)C(=O)N[C@@H](CCCNC(=N)N)C(=O)N[C@@H](CC(=O)O)C(=O)N[C@@H](Cc1ccccc1)C(=O)N[C@H](C(=O)N[C@@H](CC(N)=O)C(=O)N[C@@H](Cc1c[nH]c2ccccc12)C(=O)N[C@@H](CC(C)C)C(=O)N[C@H](C(=O)N[C@@H](CCC(N)=O)C(=O)N[C@H](C(=O)N[C@@H](CCCCN)C(N)=O)[C@@H](C)O)[C@@H](C)CC)[C@@H](C)CC)[C@@H](C)CC)[C@@H](C)O` (stereo partly specified), for which, in data set [5], the Ratio EC50 amounted to 20. The EC50 in data set [1] stood at 39 nM; in data set [3], 1.9 nM. In data set [2], this compound returned an Efficacy of 108%. In addition, in data set [4], the outcome was inactive.

On to `CCCCC(NC(=O)[C@H](CCC(=O)O)NC(=O)[C@H](CC(=O)O)NC(=O)[C@H](CO)NC(=O)[C@H](Cc1ccccc1)NC(=O)[C@H](CO)NC(=O)CNC(=O)[C@H](CC(=O)O)NC(=O)CNC(=O)[C@@H](N)Cc1cnc[nH]1)C(=O)N[C@H](Cc1ccccc1)C(=O)N[C@H](C(=O)N[C@H](C(=O)N[C@@H](CC(C)C)C(=O)N[C@@H](CC(=O)O)C(=O)N[C@@H](CC(N)=O)C(=O)N[C@@H](CC(C)C)C(=O)N[C@@H](C)C(=O)N[C@@H](C)C(=O)N[C@@H](CCCNC(=N)N)C(=O)N[C@@H](CC(=O)O)C(=O)N[C@@H](Cc1ccccc1)C(=O)N[C@H](C(=O)N[C@@H](CC(N)=O)C(=O)N[C@@H](Cc1c[nH]c2ccccc12)C(=O)N[C@@H](CC(C)C)C(=O)N[C@H](C(=O)N[C@@H](CCC(N)=O)C(=O)N[C@H](C(=O)N[C@@H](CCCCN)C(N)=O)[C@@H](C)O)[C@@H](C)CC)[C@@H](C)CC)[C@@H](C)CC)[C@@H](C)O` (stereo partly specified), for which the Ratio EC50 in data set [5] was determined as 1300. The compound also yielded an Efficacy in data set [2] of 64%. Moreover, the result in data set [4] was inactive.

Regarding `CCCCC(NC(=O)[C@H](CCC(=O)O)NC(=O)[C@H](CC(=O)O)NC(=O)[C@H](CO)NC(=O)[C@H](Cc1ccccc1)NC(=O)[C@@H](CO)NC(=O)CNC(=O)[C@@H](CC(=O)O)NC(=O)CNC(=O)[C@@H](N)Cc1cnc[nH]1)C(=O)NC(CCC(C)C)C(=O)N[C@H](C(=O)N[C@H](C(=O)N[C@@H](CC(C)C)C(=O)N[C@@H](CC(=O)O)C(=O)N[C@@H](CC(N)=O)C(=O)N[C@@H](CC(C)C)C(=O)N[C@@H](C)C(=O)N[C@@H](C)C(=O)N[C@@H](CCCNC(=N)N)C(=O)N[C@@H](CC(=O)O)C(=O)N[C@H](Cc1ccccc1)C(=O)N[C@@H](C(=O)N[C@H](CC(N)=O)C(=O)N[C@@H](Cc1c[nH]c2ccccc12)C(=O)N[C@H](CC(C)C)C(=O)N[C@@H](C(=O)N[C@H](CCC(N)=O)C(=O)N[C@@H](C(=O)N[C@@H](CCCCN)C(N)=O)[C@H](C)O)[C@H](C)CC)[C@H](C)CC)[C@H](C)CC)[C@@H](C)O` (stereo partly specified), the Ratio EC50 in data set [5] came to 34. In addition, the results for the EC50 in data set [1] and in data set [3] were 10 nM and 0.29 nM, respectively. In data set [2], this compound returned an Efficacy of 87%. Further, the outcome in data set [4] was inactive.

For the compound `CCCCC(NC(=O)[C@@H](CCC(=O)O)NC(=O)[C@@H](CC(=O)O)NC(=O)[C@@H](CO)NC(=O)[C@@H](Cc1ccccc1)NC(=O)[C@@H](CO)NC(=O)CNC(=O)[C@@H](CC(=O)O)NC(=O)CNC(=O)[C@@H](N)Cc1cnc[nH]1)C(=O)NC(Cc1ccc(-c2ccccc2)cc1)C(=O)N[C@@H](C(=O)N[C@@H](C(=O)N[C@H](CC(C)C)C(=O)N[C@H](CC(=O)O)C(=O)N[C@H](CC(N)=O)C(=O)N[C@H](CC(C)C)C(=O)N[C@H](C)C(=O)N[C@H](C)C(=O)N[C@H](CCCNC(=N)N)C(=O)N[C@H](CC(=O)O)C(=O)N[C@H](Cc1ccccc1)C(=O)N[C@@H](C(=O)N[C@H](CC(N)=O)C(=O)N[C@@H](Cc1c[nH]c2ccccc12)C(=O)N[C@@H](CC(C)C)C(=O)N[C@H](C(=O)N[C@@H](CCC(N)=O)C(=O)N[C@H](C(=O)N[C@H](CCCCN)C(N)=O)[C@@H](C)O)[C@H](C)CC)[C@@H](C)CC)[C@H](C)CC)[C@H](C)O` (stereo partly specified), the Ratio EC50 in data set [5] was 110. The EC50 in data set [1] came to 21 nM; in data set [3] it was 0.18 nM. This compound registered an Efficacy in data set [2] of 83%. Also, the outcome in data set [4] was inactive.

Usually clearance stands for a measure of how efficiently the substance is removed, as volume per time. For the compound H-HGDGSFSDEMNTILDNLAARDFINWLIQTK-NH2, the Ratio EC50 was more than 4500 in data set [5] and 2.4 in data set [6]. Also, the EC50 in data set [1] is more than 1000 nM; in data set [3], 0.22 nM. In data set [7], this compound displayed a clearance of 20 mL/min/kg.

The record behind these values is ChEMBL document CHEMBL3822442, “Synthesis and Pharmacological Characterization of Novel Glucagon-like Peptide-2 (GLP-2) Analogues with Low Systemic Clearance” (J Med Chem, 2016).
